Measurements from US20030036184A1 (priority 2000, published 2003).

Experiments:
PDE7(101-450) = biological target: T1, PDE7(101-450) (Homo sapiens, UniProt Q13946); test: PDE assay for IC50 measurements (SPA, cell lysate enzyme); assay type: biochemical; details: for sensitivity of enzyme to inhibitor: PDE7(101-450) produced in Baculovirus or eucaryote
T1 construct: made in house; host or cells: CHO (EcRCHO) cells, transient transfection; crude lysate supernatant
Method: (§1) The cell lysates containing PDE7A1 (full length or the truncated forms) were used as enzyme source. PDE assays were performed in 96-well plates in a final volume of […] at pH 8 comprising: 2 μL of compound dissolved in DMSO at 8 different concentrations, 40 mM TRIS, 10 mM MgCl2, 50 nM [^3H]-cAMP (Amersham) and enzyme at the appropriate concentration. Plates were incubated for 10 min at 37° C. in a heater/shaker and stopped by addition of 20 μL Yttrium silicate beads (Scintillation Proximity Assay, Amersham). Enzyme activity was read on a Topcount reader (Packard). Substrate depletion never exceeded 15% of the initial amount. The given IC50s represent the concentration of compound leading to 50% inhibition of the cAMP hydrolysis versus control. They are calculated using a classical sigmoidal model with Hill slope fixed to 1.
(§2) The cell lysates containing recombinant PDE7A1 (full length or the truncated forms) were used as enzyme source. PDE assays were performed in 96-well plates in a final volume of 100 μL at pH 8 comprising: […] of compound dissolved in DMSO at 8 different concentrations, 40 mM TRIS, 10 mM MgCl2, 50 nM [^3H]-cAMP and enzyme at the appropriate concentration.
(§3) Plates were incubated for 10 min at 37° C. in a heater/shaker and stopped by addition of 20 μL Yttrium silicate beads (Scintillation Proximity Assay, Amersham).
(§4) Enzyme activity was determined by measuring the radioactivity on a Topcount reader (Packard).
(§5) Substrate depletion never exceeded 15% of the initial amount. The given IC50s represent the concentration of compound leading to 50% inhibition of the cAMP hydrolysis versus control. They are calculated using a classical sigmoidal model with Hill slope

[1] = biological target: T2, recombinant full length PDE7A1 (Homo sapiens, UniProt Q13946); test: as above; assay type: biochemical; details: for sensitivity of enzyme to inhibitor: full length PDE7A produced in Baculovirus or eucaryote
T2 construct: the full length PDE7A1 protein (1-483); made in house; host or cells: CHO (EcRCHO) cells, transient transfection, cytosol/lysate supernatant; Sf21/baculovirus also described
Method: as §1, §2, §3, §4, §5

PDE7A = PDE7A (Homo sapiens, UniProt Q13946); details: cited from earlier work
PDE7(101-483) [2] = biological target: T3, PDE7(101-483) (Homo sapiens, UniProt Q13946); test: PDE assay for IC50 measurements (SPA, cell lysate enzyme); assay type: biochemical
T3 construct: this catalytic fragment (101-482) fragment was co-expressed; made in house; host or cells: CHO (EcRCHO) cells, transient transfection; crude lysate supernatant
Method: as §1, §2, §3, §4, §5

[3] = biological target: PDE7 mutant corresponding to the amino acids sequence 101-483 of the full length human PDE7A1 (human) (UniProt Q13946); test: cell-based or functional assay
PDE7(101-483) [4] = biological target: T3, PDE7(101-483); test: cAMP hydrolysis in cytosol extract of transfected CHO cells, with rolipram; assay type: biochemical; details: truncated PDE7 construct 101-483 in CHO; rolipram at 10 μM
Method: Three days before transfection, CHO cells were plated at a density of 2×10^6 cells per 150 cm^2 flask. Cells were transfected with 20 μg of endotoxin free plasmid DNA using Lipofectamine following the manufacturers instructions (Gibco BRL, Gaithersburg, Md.). After incubation for 48 hours, cells were washed twice with phosphate buffered saline (PBS), trypsinized, harvested by centrifugation and resuspended in 300 μL of PDE extraction buffer (Bis Tris 20 mM (pH 6.5), EDTA 10 mM, DTT 2.5 M) supplemented with a mixture of protease inhibitors at a final concentration of 2 mM benzamidine, 2 μg/ml soybean trypsin inhibitor, 50 μM PMSF and 100 μg/ml bacitracin. Cells were sonicated, centrifuged for 20 minutes at 14,000 g and the resultant supernatants were analyzed for cAMP phosphodiesterase activity.
Phosphodiesterase activities were assayed using a modification of the method described by Smith and collaborators (Manganellio et al., 1991) using the observation that 5′-nucleotides bind very strongly to aluma while the cyclic nucleotides are readily eluted at neutral or slightly alkaline pH. Assays were performed in 96 well plates at 37° C. in a total volume of 200 μl. […] The separated [^3H] cAMP was back-corrected for recovery using the separated and non-separated [^14C] values and expressed as a fraction of the total [^3H] cAMP to give the amount of the substrate hydrolyzed. […]

recombinant PDE7A1 = biological target: T4, recombinant PDE7A1 (Homo sapiens, UniProt Q13946); test: cAMP hydrolysis in cytosol extract of transfected CHO cells, with or without rolipram; assay type: biochemical; details: rolipram 10 μM
T4 construct: the full length PDE7A1 protein (1-483); made in house; host or cells: CHO (EcRCHO) cells, transient transfection, cytosol/lysate supernatant; Sf21/baculovirus also described
From the text: (§6) The reaction mixtures were then applied to these columns.

[5] = PDE catalytic activity of full length and truncated PDE7A1 expressed in CHO cells; assay type: biochemical; details: for level of PDE activity after expression in CHO cells (in words): cell cytosol, compared with full length PDE7A1 or PDE7Δ100; for increase in PDE catalytic activity compared to full length PDE7A1/PDE7A2 / phosphodiesterase catalytic activity relative to full length enzyme: expressed in CHO cells
Method: as §6
The resultant PDE activity was measured and compared to that for the full length coding region of PDE7A1 and non-transfected cells. […] The first 100 amino acids seem to have an influence on the catalytic activity of the expressed PDE7 enzyme.

[6] = PDE assay for Km measurements; assay type: biochemical; details: Km for cAMP
Method: The cell lysates containing PDE7A1 (full length or the truncated forms) were used as enzyme source. […] Substrate concentrations spanned a 15 nM-750 nM range. Plates were incubated for 10 min at 37° C. in a heater/shaker and stopped by addition of 20 μL Yttrium silicate beads (Scintillation Proximity Assay, Amersham). Enzyme activity was read on a Topcount reader (Packard). Substrate depletion never exceeded 15% of the initial amount. Saturation curves were then fitted with a classical sigmoidal model, Hill slope fixed to 1.
By performing kinetics studies and Km measurements as described above, the respective Km values of the full length PDE7A1 and the truncated 101-450 PDE7A1 recombinant proteins expressed in CHO cells have been determined and are shown in Table 1 below.
The Km for cAMP of the PDE7(101-450), PDE7(101-483), have been measured and compared to those of endogenously expressed PDE7 in human lymphocyte cell line (Molt4) and the full length wild type recombinant PDE7A1 (Table 1).

[7] = biological target: T5, catalytic fragment (101-482) (Homo sapiens, UniProt Q13946); test: Co-expression of the first 100 N-terminal amino acids with the catalytic fragment in CHO cells, PDE activity; assay type: cell-based
T5 construct: this catalytic fragment (101-482) fragment was co-expressed; 6xHis (N); expressed in transfected cells; host or cells: CHO cells co-transfected (lipofectamine) with two plasmids; PDE activity measured
Method: This part of the protein has been proposed to act as an auto-inhibitory domain. To establish if overexpression of the first 100 amino acids can inhibit PDE7 activity of the catalytic site, this catalytic fragment (101-482) fragment was co-expressed with the fragment 1-101 of a separate plasmid or with the plasmid pcDNA3 without this insert (negative control). Cells were transfected with 15 μg of each plasmid DNA. The catalytic site activity was inhibited of only around 40-50% in presence of fragment 1-101. (FIG. 12) The effect dose response has been checked to evaluate the involvement of the first 100 amino in PDE7 activity of the catalytic domain.
A dose effect curve has been done in the same coexpression conditions. 15 μg of the catalytic fragment (101-482) was coexpressed with increasing quantity of the fragment 1-101 of a separate plasmid. The DNA quantity was normalized for each transfection using an empty vector. (FIG. 13) A effect dose response of 100 N-terminal amino acids on PDE7 activity was observed (n=3). The catalytic domain activity was inhibited until 60% in presence of the fragment 1-100 at the highest concentration.

Sequence of PDE7A (Q13946 whole entry, species assumed): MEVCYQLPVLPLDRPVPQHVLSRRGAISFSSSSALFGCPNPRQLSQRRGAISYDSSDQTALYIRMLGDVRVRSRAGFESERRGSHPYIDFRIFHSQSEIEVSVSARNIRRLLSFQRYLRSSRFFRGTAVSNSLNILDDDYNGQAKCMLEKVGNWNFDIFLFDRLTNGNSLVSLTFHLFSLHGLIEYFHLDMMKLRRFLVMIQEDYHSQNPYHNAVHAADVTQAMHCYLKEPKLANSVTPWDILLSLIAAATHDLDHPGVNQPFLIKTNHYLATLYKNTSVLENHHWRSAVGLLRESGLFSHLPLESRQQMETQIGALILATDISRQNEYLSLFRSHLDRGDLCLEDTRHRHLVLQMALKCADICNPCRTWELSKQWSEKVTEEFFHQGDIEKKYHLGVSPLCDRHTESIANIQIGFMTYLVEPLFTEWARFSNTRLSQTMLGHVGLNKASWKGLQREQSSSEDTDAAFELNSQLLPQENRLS
T2 sequence (Q13946 whole entry): as the sequence (Q13946 whole entry, species assumed) above
T4 sequence (Q13946 whole entry): as the sequence (Q13946 whole entry, species assumed) above

CN/C(=N\c1ccc(C2=NNC(=O)CC2C)cc1)NC#N (stereo not drawn) [SKF-94836]
sensitivity of enzyme to inhibitor (PDE7(101-450)): insensitive | sensitivity of enzyme to inhibitor [1]: insensitive | sensitivity of PDE7A to standard selective inhibitors of other PDE families (PDE7A): insensitivity

CCCOc1ccccc1-c1nc2nn[nH]c2c(=O)[nH]1 [Zaprinast]
sensitivity of enzyme to inhibitor (PDE7(101-450)): insensitive | sensitivity of enzyme to inhibitor [1]: insensitive | sensitivity of PDE7A to standard selective inhibitors of other PDE families (PDE7A): insensitivity

CC(C)Cn1c(=O)n(C)c(=O)c2[nH]cnc21 [IBMX, 3 isobutyl-1-methyl xanthine]
IC50 (PDE7(101-483) [2]): 13 to 14 µM | IC50 (PDE7(101-450); PDE7(101-450)): 13 to 14 µM | IC50 ([1]; recombinant full length PDE7A1): 13 to 14 µM

first N-terminal 100 amino acids of the full length human PDE7A1 (from UniProt Q13946 1-100)
PDE7 catalytic domain activity in CHO cells, 15 µg catalytic fragment plasmid with increasing quantity of fragment 1-101 plasmid, percent inhibition at the highest concentration [3]: 60% | PDE7 catalytic site activity in lysates of co-transfected CHO cells (15 µg of each plasmid), percent inhibition [3]: 40 to 50%

Cc1[nH]c(=O)c(C#N)cc1-c1ccncc1 [milrinone]
sensitivity of PDE7A to standard selective inhibitors of other PDE families (PDE7A): insensitivity

CCOC(=O)C1=C[C@]2(CC)CCCN3CCc4c(n1c1ccccc41)[C@@H]32 [Vinpocetin]
sensitivity of enzyme to inhibitor (PDE7(101-450)): insensitive | sensitivity of enzyme to inhibitor [1]: insensitive | sensitivity of PDE7A to standard selective inhibitors of other PDE families (PDE7A): insensitivity

COc1ccc(C2CNC(=O)C2)cc1OC1CCCC1 (stereo not drawn) [rolipram]
sensitivity of enzyme to inhibitor (PDE7(101-450)): insensitive | sensitivity of enzyme to inhibitor [1]: insensitive | sensitivity of PDE activity to rolipram (PDE7(101-483) [4]): insensitive | sensitivity of increase in cAMP activity above basal to rolipram (recombinant PDE7A1): insensitive

B1: PDE7A;101-450: truncated human PDE7A1, amino acids 101-450; positions 45-394 of SEQ ID No1 (protein, listed as Homo sapiens)
chain: VSVSARNIRRLLSFQRYLRSSRFFRGTAVSNSLNILDDDYNGQAKCMLEKVGNWNFDIFLFDRLTNGNSLVSLTFHLFSLHGLIEYFHLDMMKLRRFLVMIQEDYHSQNPYHNAVHAADVTQAMHCYLKEPKLANSVTPWDILLSLIAAATHDLDHPGVNQPFLIKTNHYLATLYKNTSVLENHHWRSAVGLLRESGLFSHLPLESRQQMETQIGALILATDISRQNEYLSLFRSHLDRGDLCLEDTRHRHLVLQMALKCADICNPCRTWELSKQWSEKVTEEFFHQGDIEKKYHLGVSPLCDRHTESIANIQIGFMTYLVEPLFTEWARFSNTRLSQTMLGHVGLNKAS
level of PDE activity after expression in CHO cells (in words) [5]: equivalent to that observed for PDE7Δ100 | increase in PDE catalytic activity compared to full length PDE7A1/PDE7A2 [5]: about 15 fold | phosphodiesterase catalytic activity relative to full length enzyme [5]: about 15 times | Km [6]: 0.07 µM | Km ([6]; Table 1): 0.074 µM

B2: PDE7Δ100: human PDE7A1 construct which lacks the first 100 amino acids; positions 45-427 of SEQ ID No1 (protein)
chain: VSVSARNIRRLLSFQRYLRSSRFFRGTAVSNSLNILDDDYNGQAKCMLEKVGNWNFDIFLFDRLTNGNSLVSLTFHLFSLHGLIEYFHLDMMKLRRFLVMIQEDYHSQNPYHNAVHAADVTQAMHCYLKEPKLANSVTPWDILLSLIAAATHDLDHPGVNQPFLIKTNHYLATLYKNTSVLENHHWRSAVGLLRESGLFSHLPLESRQQMETQIGALILATDISRQNEYLSLFRSHLDRGDLCLEDTRHRHLVLQMALKCADICNPCRTWELSKQWSEKVTEEFFHQGDIEKKYHLGVSPLCDRHTESIANIQIGFMTYLVEPLFTEWARFSNTRLSQTMLGHVGLNKASWKGLQREQSSSEDTDAAFELNSQLLPQENRLS
modifications: left off: small tags and cut ends
increase in PDE catalytic activity compared to mock transfected cells ([5]; CHO cells): 8 fold | level of PDE activity after expression in CHO cells (in words) [5]: Highest levels of PDE activity | increase in PDE catalytic activity compared to full length PDE7A1/PDE7A2 [5]: 15 fold | phosphodiesterase catalytic activity relative to full length enzyme [5]: about 15 times | Km ([6]; Table 1): 0.052 µM

B3: fragment 1-101: first N-terminal 100 amino acids of the full length human PDE7A1 (protein, UniProt Q13946 1-100, looked up, fragment)
chain: MEVCYQLPVLPLDRPVPQHVLSRRGAISFSSSSALFGCPNPRQLSQRRGAISYDSSDQTALYIRMLGDVRVRSRAGFESERRGSHPYIDFRIFHSQSEIE
modifications: PDE7A1
notes: first N-terminal 100 amino acids of the full length human PDE7A1
inhibition of catalytic site activity ([7]; co-expression, 15 μg of each plasmid DNA): 40-50% | inhibition of catalytic domain activity ([7]; dose effect curve, fragment at the highest concentration, n=3): ≤ 60%

B4: PDE7A;101-420: truncated human PDE7A1, amino acids 101-420 (protein, UniProt Q13946 101-420, looked up, fragment)
chain: VSVSARNIRRLLSFQRYLRSSRFFRGTAVSNSLNILDDDYNGQAKCMLEKVGNWNFDIFLFDRLTNGNSLVSLTFHLFSLHGLIEYFHLDMMKLRRFLVMIQEDYHSQNPYHNAVHAADVTQAMHCYLKEPKLANSVTPWDILLSLIAAATHDLDHPGVNQPFLIKTNHYLATLYKNTSVLENHHWRSAVGLLRESGLFSHLPLESRQQMETQIGALILATDISRQNEYLSLFRSHLDRGDLCLEDTRHRHLVLQMALKCADICNPCRTWELSKQWSEKVTEEFFHQGDIEKKYHLGVSPLCDRHTESIANIQIGFMTYL
modifications: PDE7A1
level of PDE activity after expression in CHO cells (in words) [5]: no detectable increase

B5: PDE7A;101-430: truncated human PDE7A1, amino acids 101-430 (protein, UniProt Q13946 101-430, looked up, fragment)
chain: VSVSARNIRRLLSFQRYLRSSRFFRGTAVSNSLNILDDDYNGQAKCMLEKVGNWNFDIFLFDRLTNGNSLVSLTFHLFSLHGLIEYFHLDMMKLRRFLVMIQEDYHSQNPYHNAVHAADVTQAMHCYLKEPKLANSVTPWDILLSLIAAATHDLDHPGVNQPFLIKTNHYLATLYKNTSVLENHHWRSAVGLLRESGLFSHLPLESRQQMETQIGALILATDISRQNEYLSLFRSHLDRGDLCLEDTRHRHLVLQMALKCADICNPCRTWELSKQWSEKVTEEFFHQGDIEKKYHLGVSPLCDRHTESIANIQIGFMTYLVEPLFTEWAR
modifications: PDE7A1
level of PDE activity after expression in CHO cells (in words) [5]: no detectable increase
